Where a name gives a salt, the structure may show the parent alone. A value given as a limit tells only on which side of the number the result lay.

This assay deals with SHP2 (Homo sapiens (Human), UniProt Q06124). The assay can be described thus: SHP2 Allosteric Inhibition Assay (DiFMUP prompt fluorescence). It counts as biochemical. The settings on record: 0.25 nM SHP2 activated with 0.5 μM peptide IRS1_pY1172(dPEG8)pY1222; substrate DiFMUP 100 μM; 25° C.
Sequence of SHP2 (Q06124 whole entry): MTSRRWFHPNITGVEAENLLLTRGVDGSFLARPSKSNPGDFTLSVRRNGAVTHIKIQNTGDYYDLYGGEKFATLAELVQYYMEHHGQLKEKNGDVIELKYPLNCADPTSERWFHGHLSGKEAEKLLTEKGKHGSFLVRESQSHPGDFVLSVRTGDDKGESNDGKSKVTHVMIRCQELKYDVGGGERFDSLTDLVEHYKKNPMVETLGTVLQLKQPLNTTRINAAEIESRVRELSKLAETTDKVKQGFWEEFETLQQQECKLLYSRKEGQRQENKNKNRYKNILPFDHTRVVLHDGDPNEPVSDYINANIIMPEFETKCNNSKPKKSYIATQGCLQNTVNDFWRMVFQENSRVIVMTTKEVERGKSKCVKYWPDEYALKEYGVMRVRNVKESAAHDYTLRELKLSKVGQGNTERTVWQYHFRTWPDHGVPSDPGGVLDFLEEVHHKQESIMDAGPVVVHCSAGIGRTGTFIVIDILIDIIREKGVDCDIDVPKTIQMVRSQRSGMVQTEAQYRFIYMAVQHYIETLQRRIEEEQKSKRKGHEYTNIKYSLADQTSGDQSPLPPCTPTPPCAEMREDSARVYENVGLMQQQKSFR
In the case of `CC1(CN)CCN(c2cnc3c(Sc4ccn5nccc5c4)n[nH]c3n2)CC1` [Compound 513, (4-methyl-1-(3-(pyrazolo[1,5-a]pyridin-5-ylthio)-1H-pyrazolo[3,4-b]pyrazin-6-yl)piperidin-4-yl)methanamine], the IC50 was < 1 µM. In the case of `CC(=O)N1CCN(c2n[nH]c3nc(N4CCC(C)(N)CC4)cnc23)c2ccccc21` [Compound 56], the IC50 was < 1 µM. The result for `NC1CCCC12CCN(c1cnc3c(N4CCCc5ncccc54)n[nH]c3n1)C2` (centres unmarked) [Compound 203, 2-(3-(3,4-dihydro-1,5-naphthyridin-1(2H)-yl)-1H-pyrazolo[3,4-b]pyrazin-6-yl)-2-azaspiro[4.4]nonan-6-amine] reads 1 to 10 µM. With `CC1(CN)CCN(c2cnc3c(N4CCCc5c(-c6ccc(F)cc6)cccc54)n[nH]c3n2)CC1` [Compound 69] the figure was < 1 µM; with `CC1(N)CCN(c2cnc3c(Sc4ncnc5ccccc45)n[nH]c3n2)CC1` [Compound 493, 4-methyl-1-(3-(quinazolin-4-ylthio)-1H-pyrazolo[3,4-b]pyrazin-6-yl)piperidin-4-amine], < 1 µM; with `N[C@@H]1C[C@H](O)CC12CCN(c1cnc3c(N4CCCc5ncccc54)n[nH]c3n1)CC2` [Compound 467, (2R,4R)-4-amino-8-[3-(1,2,3,4-tetrahydro-1,5-naphthyridin-1-yl)-1H-pyrazolo[3,4-b]pyrazin-6-yl]-8-azaspiro[4.5]decan-2-ol], < 1 µM. Turning to `C[C@@H]1OCC2(CCN(c3cnc4c(N5CC[C@H](C)c6nc(-c7ncc[nH]7)ccc65)n[nH]c4n3)CC2)[C@@H]1N` (relative stereo) [Compound 449, (3S,4S)-8-{3-[(4R*)-6-(1H-imidazol-2-yl)-4-methyl-1,2,3,4-tetrahydro-1,5-naphthyridin-1-yl]-1H-pyrazolo[3,4-b]pyrazin-6-yl)-3-methyl-2-oxa-8-azaspiro[4.5]decan-4-amine hydrochloride], the IC50 was < 1 µM. With `CC1(N)CCN(c2cnc3c(N4CCCC(c5ccccc5)C4)n[nH]c3n2)CC1` (centres unmarked) [Compound 47] the figure was 1 to 10 µM; with `C[C@@H]1OCC2(CCN(c3cnc4c(N5CCc6ccncc6C5)n[nH]c4n3)CC2)[C@@H]1N` [Compound 272], < 1 µM; with `Cn1cc(-c2c(C#N)ccc3c2CCCN3c2n[nH]c3nc(N4CCC(C)(CN)CC4)cnc23)cn1` [Compound 131], < 1 µM. With `CO[C@H]1C[C@H](N2CCN(c3n[nH]c4nc(N5CCC6(CC5)CO[C@@H](C)[C@H]6N)cnc34)c3ccc(C#N)cc32)C1` [Compound 470] the figure was < 1 µM. The result for `CC1(N)CCN(c2cnc3c(Oc4ncccc4Cl)n[nH]c3n2)CC1` [Compound 502, 1-(3-((3-chloropyridin-2-yl)oxy)-1H-pyrazolo[3,4-b]pyrazin-6-yl)-4-methylpiperidin-4-amine dihydrochloride] reads < 1 µM; that for `C[C@@H]1OCC2(CCN(c3cnc4c(N5CC[C@H](C)c6nc(-c7cnn(C)c7)ccc65)n[nH]c4n3)CC2)[C@@H]1N` [Compound 284, (3S,4S)-3-methyl-8-{3-[(4S)-4-methyl-6-(1-methyl-1H-pyrazol-4-yl)-1,2,3,4-tetrahydro-1,5-naphthyridin-1-yl]-1H-pyrazolo[3,4-b]pyrazin-6-yl}-2-oxa-8-azaspiro[4.5]decan-4-amine], < 1 µM; that for `C[C@@H]1OCC2(CCN(c3cnc4c(N5CCN(C6CC(F)(F)C6)c6cc(C#N)ccc65)n[nH]c4n3)CC2)[C@@H]1N` [Compound 530], < 1 µM. With `CC1(N)CCN(c2cnc3c(N4CCCn5c4cccc5=O)n[nH]c3n2)CC1` [Compound 43], the IC50 is ≥ 10 µM. With `C[C@@H]1OCC2(CCN(c3cnc4c(N5CCN([C@H]6C[C@@](C)(O)C6)c6cc(C#N)ccc65)n[nH]c4n3)CC2)[C@@H]1N` [Compound 526] the figure was < 1 µM; with `CC1Cc2ccccc2C(=O)N1c1n[nH]c2nc(N3CCC4(CC3)CO[C@@H](C)[C@H]4N)cnc12` (some centres unmarked) [Compound 385], ≥ 10 µM. The result for `NC[C@@H]1CCN(c2cnc3c(N4CCCc5ncccc54)n[nH]c3n2)[C@@H](c2ccccc2)C1` [Compound 168] reads 1 to 10 µM; that for `CO[C@H]1C[C@@H](N2CCN(c3n[nH]c4nc(N5CCC6(CC5)CO[C@@H](C)[C@H]6N)cnc34)c3ccc(C#N)cc32)C1` [Compound 469], < 1 µM. The result for `C[C@@H]1OCC2(CCN(c3cnc4c(N5CCCc6ncccc65)n[nH]c4n3)CC2)C1O` (stereo partly drawn) [Compound 201, (3S)-8-(3-(3,4-dihydro-1,5-naphthyridin-1(2H)-yl)-1H-pyrazolo[3,4-b]pyrazin-6-yl)-3-methyl-2-oxa-8-azaspiro[4.5]decan-4-ol] reads ≥ 10 µM; that for `C[C@@H]1OCC2(CCN(c3cnc4c(N5CCc6c(-c7nccs7)cccc65)n[nH]c4n3)CC2)[C@@H]1N` [Compound 221], < 1 µM; that for `CC1CCN(c2n[nH]c3nc(N4CCC5(CC4)CNC(=O)C5)cnc23)c2cccnc21` (centres unmarked) [Compound 222, 8-[3-(4-methyl-1,2,3,4-tetrahydro-1,5-naphthyridin-1-yl)-1H-pyrazolo[3,4-b]pyrazin-6-yl]-2,8-diazaspiro[4.5]decan-3-one], 1 to 10 µM.

As for `CC(=O)Nc1cccc2c1CCCN2c1n[nH]c2nc(N3CCC4(CC3)CO[C@@H](C)[C@H]4N)cnc12` [Compound 376, N-(1-{6-[(3S,4S)-4-amino-3-methyl-2-oxa-8-azaspiro[4.5]decan-8-yl]-1H-pyrazolo[3,4-b]pyrazin-3-yl}-1,2,3,4-tetrahydroquinolin-5-yl)acetamide], the IC50 was < 1 µM.

On to `CNC(=O)N1CCN(c2n[nH]c3nc(N4CCC5(CC4)CO[C@@H](C)[C@H]5N)cnc23)c2ccccc21` [Compound 342], for which the IC50 is < 1 µM. With `Cn1cc(-c2ccc3c(n2)CCCN3c2n[nH]c3nc(N4CCC5(CCC[C@H]5N)CC4)cnc23)cn1` [Compound 298, (R)-8-(3-(6-(1-methyl-1H-pyrazol-4-yl)-3,4-dihydro-1,5-naphthyridin-1(2H)-yl)-1H-pyrazolo[3,4-b]pyrazin-6-yl)-8-azaspiro[4.5]decan-1-amine] the figure was < 1 µM. The result for `CC(C)S(=O)(=O)c1cccc2c1CCCN2c1n[nH]c2nc(N3CCC4(CC3)CO[C@@H](C)[C@H]4N)cnc12` [Compound 456] reads < 1 µM. `C[C@@H]1CCN(c2n[nH]c3nc(N4CCC5(CC4)CO[C@@H](C)[C@H]5N)cnc23)c2ccc(C(=O)N(C)C)nc21` [Compound 347, (8R)-5-{6-[(3S,4S)-4-amino-3-methyl-2-oxa-8-azaspiro[4.5]decan-8-yl]-1H-pyrazolo[3,4-b]pyrazin-3-yl}-N,N,8-trimethyl-5,6,7,8-tetrahydro-1,5-naphthyridine-2-carboxamide]: the IC50 is < 1 µM. The result for `c1ccc(CC2CCN(c3cnc4c(N5CCCc6ncccc65)n[nH]c4n3)C2)cc1` (centres unmarked) [Compound 146] reads ≥ 10 µM; that for `C[C@@H]1OCC2(CCN(c3cnc4c(N5CCCc6c(CN7CCOC7=O)cccc65)n[nH]c4n3)CC2)[C@@H]1N` [Compound 459], < 1 µM; that for `C[C@@H]1OCC2(CCN(c3cnc4c(N5CC[C@H](C)c6nc(C(=O)NCCO)ccc65)n[nH]c4n3)CC2)[C@@H]1N` [Compound 447], < 1 µM.

As to `CNC(=O)c1ccc2c(c1)NCCN2c1n[nH]c2nc(N3CCC4(CC3)CO[C@@H](C)[C@H]4N)cnc12` [Compound 329, 1-{6-[(3S,4S)-4-amino-3-methyl-2-oxa-8-azaspiro[4.5]decan-8-yl]-1H-pyrazolo[3,4-b]pyrazin-3-yl}-N-methyl-1,2,3,4-tetrahydroquinoxaline-6-carboxamide], the IC50 is < 1 µM. Consider `Cc1nnc2c(-c3cccc4c3CCCN4c3n[nH]c4nc(N5CCC(C)(CN)CC5)cnc34)cccn12` [Compound 73], for which the IC50 is < 1 µM. With `CC1(N)CCN(c2cnc3c(Sc4ccccc4C#N)n[nH]c3n2)CC1` [Compound 10, 2-((6-(4-amino-4-methylpiperidin-1-yl)-1H-pyrazolo[3,4-b]pyrazin-3-yl)thio)benzonitrile] the figure was < 1 µM; with `CCc1nc(-c2ccc3c(n2)CCCN3c2n[nH]c3nc(N4CCC5(CC4)CO[C@@H](C)[C@H]5N)cnc23)no1` [Compound 320, (3S,4S)-8-{3-[6-(5-ethyl-1,2,4-oxadiazol-3-yl)-1,2,3,4-tetrahydro-1,5-naphthyridin-1-yl]-1H-pyrazolo[3,4-b]pyrazin-6-yl}-3-methyl-2-oxa-8-azaspiro[4.5]decan-4-amine; formic acid], < 1 µM. The result for `OCC1CCCCN1c1cnc2c(N3CCCc4ncccc43)n[nH]c2n1` (centres unmarked) [Compound 138] reads < 1 µM; that for `CC1CCN(c2n[nH]c3nc(N4CCC5(CC4)CO[C@@H](C)[C@H]5N)cnc23)c2cc(F)c(C#N)cc21` (some centres unmarked) [Compound 223], < 1 µM. For `c1ccc(CC2CCCN2c2cnc3c(N4CCCc5ncccc54)n[nH]c3n2)cc1` (centres unmarked) [Compound 144], the IC50 was ≥ 10 µM. The result for `NS(=O)(=O)C1CCCN(c2cnc3c(N4CCCc5ncccc54)n[nH]c3n2)C1` (centres unmarked) [Compound 137] reads < 1 µM; that for `Cc1ccncc1-c1cccc2c1CCCN2c1n[nH]c2nc(N3CCC(C)(N)CC3)cnc12` [Compound 67], < 1 µM.

Consider `OC1CCCN(c2cnc3c(N4CCCc5ncccc54)n[nH]c3n2)C1` (centres unmarked) [Compound 143], for which the IC50 is ≥ 10 µM. With `C[C@@H]1OCC2(CCN(c3cnc4c(N5CCCc6nc(N7CCNCC7)ccc65)n[nH]c4n3)CC2)[C@@H]1N` [Compound 256, (3S,4S)-3-methyl-8-{3-[6-(piperazin-1-yl)-1,2,3,4-tetrahydro-1,5-naphthyridin-1-yl]-1H-pyrazolo[3,4-b]pyrazin-6-yl}-2-oxa-8-azaspiro[4.5]decan-4-amine dihydrochloride] the figure was < 1 µM. On to `CCC(=O)N1CCN(c2n[nH]c3nc(N4CCC(C)(CN)CC4)cnc23)c2ccccc21` [Compound 193], for which the IC50 was < 1 µM. For the compound `c1cncc(COC2CCCN(c3cnc4c(N5CCCc6ncccc65)n[nH]c4n3)C2)c1` (centres unmarked) [Compound 156], the IC50 is ≥ 10 µM.

On to `C[C@@H]1OCC2(CCN(c3cnc4c(N5CCCc6c([C@@H]7CC(=O)N(C)C7)cccc65)n[nH]c4n3)CC2)[C@@H]1N` [Compound 523], for which the IC50 was < 1 µM.

Source of the values: patent US11591336B2 (Relay Therapeutics, Inc., priority 2017, dated 2023).
